Tested on: Genes belonging to other category
Assay: DNA chip mRNA expression in yeast, genes belonging to other category (Table 9)
Assay type: cell-based, Saccharomyces cerevisiae S288C
Procedure, shortened: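 In this screen, yeast in logarithmic growth are challenged for two hours with a toxic substance at a non-lethal inhibitory concentration. Their mRNA, converted to Cy3- or Cy5-labeled cDNA, hybridizes at 65° C. to a chip spanning every yeast gene, and expression is expressed as a ratio to untreated cells.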

Oc1cc(Cl)c(Cl)cc1Cl [(6), 2,4,5-trichlorophenol]
The level of expressed mRNA in the presence of chemical substance/The level of expressed mRNA in the absence of chemical substance (yeast gene YAR010C): 2.3 | The level of expressed mRNA in the presence of chemical substance/The level of expressed mRNA in the absence of chemical substance (yeast gene YBL005W-A): 1.2 | The level of expressed mRNA in the presence of chemical substance/The level of expressed mRNA in the absence of chemical substance (yeast gene YBL041W): 1.7 | The level of expressed mRNA in the presence of chemical substance/The level of expressed mRNA in the absence of chemical substance (yeast gene YBL043W): 26.9 | The level of expressed mRNA in the presence of chemical substance/The level of expressed mRNA in the absence of chemical substance (yeast gene YBL078C): 2.4 | The level of expressed mRNA in the presence of chemical substance/The level of expressed mRNA in the absence of chemical substance (yeast gene YBL101W-A): 1.4 | The level of expressed mRNA in the presence of chemical substance/The level of expressed mRNA in the absence of chemical substance (yeast gene YBR170C): 1.4 | The level of expressed mRNA in the presence of chemical substance/The level of expressed mRNA in the absence of chemical substance (yeast gene YBR173C): 1.3 | The level of expressed mRNA in the presence of chemical substance/The level of expressed mRNA in the absence of chemical substance (yeast gene YBR212W): 1.4 | The level of expressed mRNA in the presence of chemical substance/The level of expressed mRNA in the absence of chemical substance (yeast gene YBR214W): 0.8 | The level of expressed mRNA in the presence of chemical substance/The level of expressed mRNA in the absence of chemical substance (yeast gene YCL020W): 1.0 | The level of expressed mRNA in the presence of chemical substance/The level of expressed mRNA in the absence of chemical substance (yeast gene YCL027W): 1.3 | The level of expressed mRNA in the presence of chemical substance/The level of expressed mRNA in the absence of chemical substance (yeast gene YCR004C): 1.8 | The level of expressed mRNA in the presence of chemical substance/The level of expressed mRNA in the absence of chemical substance (yeast gene YCR069W): 1.4 | The level of expressed mRNA in the presence of chemical substance/The level of expressed mRNA in the absence of chemical substance (yeast gene YCR071C): 2.5 | The level of expressed mRNA in the presence of chemical substance/The level of expressed mRNA in the absence of chemical substance (yeast gene YCR088W): 2.0 | The level of expressed mRNA in the presence of chemical substance/The level of expressed mRNA in the absence of chemical substance (yeast gene YCR106W): 1.4 | The level of expressed mRNA in the presence of chemical substance/The level of expressed mRNA in the absence of chemical substance (yeast gene YDL008W): 2.7 | The level of expressed mRNA in the presence of chemical substance/The level of expressed mRNA in the absence of chemical substance (yeast gene YDL018C): 1.4 | The level of expressed mRNA in the presence of chemical substance/The level of expressed mRNA in the absence of chemical substance (yeast gene YDL143W): 1.0 | The level of expressed mRNA in the presence of chemical substance/The level of expressed mRNA in the absence of chemical substance (yeast gene YDL220C): 1.8 | The level of expressed mRNA in the presence of chemical substance/The level of expressed mRNA in the absence of chemical substance (yeast gene YDL230W): 0.9 | The level of expressed mRNA in the presence of chemical substance/The level of expressed mRNA in the absence of chemical substance (yeast gene YDL238C): 2.1 | The level of expressed mRNA in the presence of chemical substance/The level of expressed mRNA in the absence of chemical substance (yeast gene YDR055W): 3.9 | The level of expressed mRNA in the presence of chemical substance/The level of expressed mRNA in the absence of chemical substance (yeast gene YDR084C): 2.1 | The level of expressed mRNA in the presence of chemical substance/The level of expressed mRNA in the absence of chemical substance (yeast gene YDR085C): 2.1 | The level of expressed mRNA in the presence of chemical substance/The level of expressed mRNA in the absence of chemical substance (yeast gene YDR104C): 1.7 | The level of expressed mRNA in the presence of chemical substance/The level of expressed mRNA in the absence of chemical substance (yeast gene YDR115W): 2.3 | The level of expressed mRNA in the presence of chemical substance/The level of expressed mRNA in the absence of chemical substance (yeast gene YDR212W): 1.4 | The level of expressed mRNA in the presence of chemical substance/The level of expressed mRNA in the absence of chemical substance (yeast gene YDR259C): 0.5 | The level of expressed mRNA in the presence of chemical substance/The level of expressed mRNA in the absence of chemical substance (yeast gene YDR264C): 1.8 | The level of expressed mRNA in the presence of chemical substance/The level of expressed mRNA in the absence of chemical substance (yeast gene YDR315C): 9.4 | The level of expressed mRNA in the presence of chemical substance/The level of expressed mRNA in the absence of chemical substance (yeast gene YDR358W): 2.5 | The level of expressed mRNA in the presence of chemical substance/The level of expressed mRNA in the absence of chemical substance (yeast gene YDR388W): 1.0 | The level of expressed mRNA in the presence of chemical substance/The level of expressed mRNA in the absence of chemical substance (yeast gene YDR403W): 1.1 | The level of expressed mRNA in the presence of chemical substance/The level of expressed mRNA in the absence of chemical substance (yeast gene YDR432W): 0.6 | The level of expressed mRNA in the presence of chemical substance/The level of expressed mRNA in the absence of chemical substance (yeast gene YDR481C): 0.9 | The level of expressed mRNA in the presence of chemical substance/The level of expressed mRNA in the absence of chemical substance (yeast gene YDR510W): 1.0 | The level of expressed mRNA in the presence of chemical substance/The level of expressed mRNA in the absence of chemical substance (yeast gene YEL042W): 0.5 | The level of expressed mRNA in the presence of chemical substance/The level of expressed mRNA in the absence of chemical substance (yeast gene YEL066W): 2.2 | The level of expressed mRNA in the presence of chemical substance/The level of expressed mRNA in the absence of chemical substance (yeast gene YER021W): 1.1 | The level of expressed mRNA in the presence of chemical substance/The level of expressed mRNA in the absence of chemical substance (yeast gene YER039C): 1.6 | The level of expressed mRNA in the presence of chemical substance/The level of expressed mRNA in the absence of chemical substance (yeast gene YER078C): 1.4 | The level of expressed mRNA in the presence of chemical substance/The level of expressed mRNA in the absence of chemical substance (yeast gene YER094C): 1.1 | The level of expressed mRNA in the presence of chemical substance/The level of expressed mRNA in the absence of chemical substance (yeast gene YER107C): 2.5 | The level of expressed mRNA in the presence of chemical substance/The level of expressed mRNA in the absence of chemical substance (yeast gene YER130C): 2.7 | The level of expressed mRNA in the presence of chemical substance/The level of expressed mRNA in the absence of chemical substance (yeast gene YFL022C): 0.9 | The level of expressed mRNA in the presence of chemical substance/The level of expressed mRNA in the absence of chemical substance (yeast gene YFL028C): 1.7 | The level of expressed mRNA in the presence of chemical substance/The level of expressed mRNA in the absence of chemical substance (yeast gene YFL038C): 1.3 | The level of expressed mRNA in the presence of chemical substance/The level of expressed mRNA in the absence of chemical substance (yeast gene YFL043C): 1.8 | The level of expressed mRNA in the presence of chemical substance/The level of expressed mRNA in the absence of chemical substance (yeast gene YFR051C): 0.2 | The level of expressed mRNA in the presence of chemical substance/The level of expressed mRNA in the absence of chemical substance (yeast gene YGL056C): 0.4 | The level of expressed mRNA in the presence of chemical substance/The level of expressed mRNA in the absence of chemical substance (yeast gene YGL093W): 1.0 | The level of expressed mRNA in the presence of chemical substance/The level of expressed mRNA in the absence of chemical substance (yeast gene YGL150C): 1.1 | The level of expressed mRNA in the presence of chemical substance/The level of expressed mRNA in the absence of chemical substance (yeast gene YGL158W): 0.4 | The level of expressed mRNA in the presence of chemical substance/The level of expressed mRNA in the absence of chemical substance (yeast gene YGL166W): 1.0 | The level of expressed mRNA in the presence of chemical substance/The level of expressed mRNA in the absence of chemical substance (yeast gene YGL229C): 2.2 | The level of expressed mRNA in the presence of chemical substance/The level of expressed mRNA in the absence of chemical substance (yeast gene YGR136W): 1.1 | The level of expressed mRNA in the presence of chemical substance/The level of expressed mRNA in the absence of chemical substance (yeast gene YGR189C): 0.5 | The level of expressed mRNA in the presence of chemical substance/The level of expressed mRNA in the absence of chemical substance (yeast gene YGR213C): 4.1 | The level of expressed mRNA in the presence of chemical substance/The level of expressed mRNA in the absence of chemical substance (yeast gene YGR253C): 1.4 | The level of expressed mRNA in the presence of chemical substance/The level of expressed mRNA in the absence of chemical substance (yeast gene YGR257C): 2.1 | The level of expressed mRNA in the presence of chemical substance/The level of expressed mRNA in the absence of chemical substance (yeast gene YHR004C): 2.0 | The level of expressed mRNA in the presence of chemical substance/The level of expressed mRNA in the absence of chemical substance (yeast gene YHR027C): 0.4 | The level of expressed mRNA in the presence of chemical substance/The level of expressed mRNA in the absence of chemical substance (yeast gene YHR028C): 0.9 | The level of expressed mRNA in the presence of chemical substance/The level of expressed mRNA in the absence of chemical substance (yeast gene YHR071W): 2.0 | The level of expressed mRNA in the presence of chemical substance/The level of expressed mRNA in the absence of chemical substance (yeast gene YHR082C): 0.8 | The level of expressed mRNA in the presence of chemical substance/The level of expressed mRNA in the absence of chemical substance (yeast gene YHR136C): 1.4 | The level of expressed mRNA in the presence of chemical substance/The level of expressed mRNA in the absence of chemical substance (yeast gene YHR139C): 1.9 | The level of expressed mRNA in the presence of chemical substance/The level of expressed mRNA in the absence of chemical substance (yeast gene YHR142W): 1.2 | The level of expressed mRNA in the presence of chemical substance/The level of expressed mRNA in the absence of chemical substance (yeast gene YHR160C): 1.0 | The level of expressed mRNA in the presence of chemical substance/The level of expressed mRNA in the absence of chemical substance (yeast gene YHR166C): 1.8 | The level of expressed mRNA in the presence of chemical substance/The level of expressed mRNA in the absence of chemical substance (yeast gene YHR205W): 1.0 | The level of expressed mRNA in the presence of chemical substance/The level of expressed mRNA in the absence of chemical substance (yeast gene YIL015W): 0.4 | The level of expressed mRNA in the presence of chemical substance/The level of expressed mRNA in the absence of chemical substance (yeast gene YIL075C): 0.8 | The level of expressed mRNA in the presence of chemical substance/The level of expressed mRNA in the absence of chemical substance (yeast gene YIL123W): 0.5 | The level of expressed mRNA in the presence of chemical substance/The level of expressed mRNA in the absence of chemical substance (yeast gene YIL129C): 0.3 | The level of expressed mRNA in the presence of chemical substance/The level of expressed mRNA in the absence of chemical substance (yeast gene YIL140W): 0.5 | The level of expressed mRNA in the presence of chemical substance/The level of expressed mRNA in the absence of chemical substance (yeast gene YIL142W): 1.1 | The level of expressed mRNA in the presence of chemical substance/The level of expressed mRNA in the absence of chemical substance (yeast gene YIR009W): 1.4 | The level of expressed mRNA in the presence of chemical substance/The level of expressed mRNA in the absence of chemical substance (yeast gene YJL073W): 2.0 | The level of expressed mRNA in the presence of chemical substance/The level of expressed mRNA in the absence of chemical substance (yeast gene YJL089W): 1.6 | The level of expressed mRNA in the presence of chemical substance/The level of expressed mRNA in the absence of chemical substance (yeast gene YJL116C): 3.4

Source: patent publication US8192962B2, “Processes for detecting toxic substances” (Daikin Industries, Ltd., priority 2001, dated 2012)
